For three compounds, IC50 results are on record in ChEMBL document CHEMBL1141752, “Koniamborine, the first pyrano[3,2-b]indole alkaloid and other secondary metabolites from Boronella koniambiensis” (J Nat Prod, 2005).

Broadly, the pIC50 is −log10 of the IC50, conventionally taken in molar units. A low value points to a large IC50.

pIC50: −log10 of the molar value.

The subject of this assay is L1210. The assay is described as follows: Cytotoxicity against mouse L1210 cells. The assay is classed as functional, cell-based.
Turning to `COc1ccc2c3occc(=O)c3n(C)c2c1` [KONIAMBORINE], the pIC50 was 4.42.
`CC(C)=CCC/C(C)=C/COc1ccc2ccc(=O)oc2c1CC=C(C)C` showed a pIC50 of 4.80.
`c1cc2c(cc1CC1COCC1Cc1ccc3c(c1)OCO3)OCO2` (stereo not drawn) showed a pIC50 of 4.14. This pIC50 lies 0.66 log units lower than the previous one.
